# Laboratory results taken from patent US20230225991A1, “COMPOUNDS FOR USE IN THE TREATMENT OF ACUTE INTERMITTENT PORPHYRIA” (VESTLANDETS INNOVASJONSSELSKAP AS, priority 2019, published 2023).
# Columns and labels:
# WT-HMBS [1] = biological target: T1, WT-HMBS (Homo sapiens, UniProt P08397); experiment: HMBS activity after pre-incubation with compound at 70° C.; type: biochemical; conditions: pre-incubation with compound at 70° C. 20 min, then standard assay 100 μM PBG at 37° C., 84 μM compound, 2% DMSO
# T1 construct: Full-length HMBS was cloned into pET-28a(+)-TEV vector and transformed into BL21 (DE3) cells for expression; 6xHis (N, cleaved yes); TEV protease cleavage site (N, cleaved yes); made in house; host or cells: E. coli BL21 (DE3)
# T1 sequence (P08397 1-361): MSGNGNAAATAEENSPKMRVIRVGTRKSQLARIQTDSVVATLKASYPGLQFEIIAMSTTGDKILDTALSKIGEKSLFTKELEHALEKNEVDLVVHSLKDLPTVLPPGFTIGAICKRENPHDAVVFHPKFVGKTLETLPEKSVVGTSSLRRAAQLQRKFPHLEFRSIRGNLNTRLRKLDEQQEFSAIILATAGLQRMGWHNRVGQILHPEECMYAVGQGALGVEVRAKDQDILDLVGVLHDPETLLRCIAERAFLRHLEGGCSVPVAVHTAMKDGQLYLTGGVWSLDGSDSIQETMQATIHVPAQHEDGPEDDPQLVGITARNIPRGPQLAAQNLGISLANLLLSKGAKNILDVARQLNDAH
# Protocol: The effect of the compounds on the stability of HMBS activity was assayed by pre-incubating the HMBS (4-5 μg) in 50 mM HEPES pH 8.2, 84 μM compound and 2% DMSO for 20 min at 70° C., and then placed on ice for 5 min. The enzymatic activity at 37° C. was subsequently measured as reported previously (Bustad et al., Bioscience reports 2013; 3 3(4)). Controls without compound but with equal concentration of DMSO were included. The remaining activity in the presence of compounds was normalized relative to DMSO-control (relative activity). […] USA, www.graphpad.com.
# An enzymatic assay was performed to investigate the effect of compound BG-1 on the activity and conformational stability of HMBS. HMBS activity of the purified enzyme was measured in the absence and presence of compound BG-1 (at 84 μM) at standard conditions (37° C.) but also after pre-incubation at 70° C. for 20 min based on the high thermal stability of WT-HMBS.
# HMBS = biological target: T2, HMBS (Homo sapiens, UniProt P08397); experiment: Octet RED96 binding (S0.5); parameters: Full-length HMBS was cloned into pET-28a(+)-TEV vector and transformed into BL21 (DE3) cells for expression; 6xHis (N, cleaved yes); TEV protease cleavage site (N, cleaved yes); made in house; host or cells: E. coli BL21 (DE3); conditions: sigmoidal binding isotherm, SSA biosensors, biotinylated HMBS; read-out: S0.5 (concentration for half-maximal binding), Octet
# T2 sequence (P08397 1-361): T1 sequence (P08397 1-361)
# Protocol: The enzyme used in the binding assays using the Octet RED96 was expressed using a new construct with an N-terminal 6×HIS affinity tag and a TEV protease cleavage site. Full-length HMBS was cloned into pET-28a(+)-TEV vector and transformed into BL21 (DE3) cells for expression. Expression was done in Terrific Broth medium with IPTG induction. Cells were cultured 16 h at 20° C. with 220 rpm shaking. After harvesting, the cells were lysed with sonication, and standard affinity purification was performed using Ni-NTA affinity matrix. Protein was eluted with 20 mM HEPES, 150 mM NaCl (gel filtration buffer), pH 8 supplemented with 400 mM imidazole. […]
# Octet RED96 system (ForteBio Biologics by Molecular Devices, LLC., San Jose, Calif.) with super streptavidin (SSA) biosensors was used as an additional method for determining the Kd-value for the binding of the compounds. […] Triplicates for the concentration series of the compounds were measured, and double reference subtraction was applied for data analysis based on the steady-state kinetics with equilibrium binding signal (Req) using ForteBio Data analysis 9.0. […]
# The binding of compounds BG-1 and BG-2 to HMBS was analyzed by surface plasmon resonance (SPR) and response units from concentration-dependent steady state measurements were analyzed assuming a 1:1 binding model. […]
# WT-HMBS [2] = biological target: T1, WT-HMBS; experiment: Surface plasmon resonance (SPR), HMBS immobilized to sensor chip; conditions: sigmoidal fitting of binding isotherm, 25° C., 0-200 μM compound; read-out: S0.5 (concentration for half-maximal binding), SPR
# Protocol: Surface plasmon resonance experiments for the estimation of the concentration of compound at half-maximal binding (S0.5) were performed using a Biacore T200 (GE Healthcare) instrument at 25° C. 150 μg/ml WT-HMBS in 10 mM sodium acetate pH 4.5 was immobilized onto a CM5-S sensor chip through amine-coupling chemistry and PBS containing 0.05% surfactant P20 as running buffer, reaching immobilization levels ˜15,000. The baseline was equilibrated for 1-2 h, before the compounds were assayed in a concentration-dependent manner (0-200 μM), using running buffer with 5% DMSO and 30 μl/min flow rate. Contact and dissociation time was 60 s, with a final wash after 50% DMSO injection. Blank immobilization, solvent correction and negative control (assay buffer) were included for the analysis of the sensorgrams using the Biacore T200 Evaluation software v2.0. The allosteric sigmoidal curve fitting was performed using GraphPad Prism.
# The binding of compounds BG-1 and BG-2 to HMBS was analyzed by surface plasmon resonance (SPR) and response units from concentration-dependent steady state measurements were analyzed assuming a 1:1 binding model. […] The interaction between compound BG-1 and HMBS was therefore further studied with Octet RED96 system with super streptavidin (SSA) biosensors. […]
Structure (SMILES),"Relative activity, pre-inc. at 70° C (WT-HMBS [1])",Kd (HMBS),Kd (WT-HMBS [2])
O=Cc1cc(Cc2ccccc2Cl)cc([N+](=O)[O-])c1O [BG-1],1.01 ± 0.06,83 ± 7 µM,
O=C(c1ccccc1)c1ccc(Cl)c([N+](=O)[O-])c1 [BG-2],,,63 ± 3 µM
